Laboratory results published in article PMC2880635 (Biochemistry, 2009).
Changes are numbered by the printed parent chain.

What was measured:
Sts-2PGM [1] = target: T1, Sts-2PGM (Mus musculus, UniProt Q3V3E1); experiment: biochemical
T1 sequence (Q3V3E1 354-624): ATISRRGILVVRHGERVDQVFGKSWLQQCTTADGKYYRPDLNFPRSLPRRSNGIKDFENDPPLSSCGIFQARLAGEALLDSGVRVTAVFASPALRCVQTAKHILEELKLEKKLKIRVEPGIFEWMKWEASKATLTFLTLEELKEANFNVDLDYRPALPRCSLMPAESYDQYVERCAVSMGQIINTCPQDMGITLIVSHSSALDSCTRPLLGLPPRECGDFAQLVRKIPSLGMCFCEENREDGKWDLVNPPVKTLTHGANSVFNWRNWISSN

Sts-2PGM(E481V) = target: T2, Sts-2PGM(E481V) (Mus musculus, UniProt Q3V3E1, E481V); experiment: pNPP hydrolysis by Sts-2PGM; assay type: biochemical; details: substrate pNPP
T2 sequence (Q3V3E1 354-624 E481V): T1 sequence (Q3V3E1 354-624) with E128V

Sts-1PGM = Sts-1PGM (Mus musculus, UniProt Q8BGG7); experiment: pNPP hydrolysis by Sts-1PGM; assay type: biochemical; details: substrate pNPP
Sts-1PGM, sequence (Q8BGG7 369-638 limits assumed): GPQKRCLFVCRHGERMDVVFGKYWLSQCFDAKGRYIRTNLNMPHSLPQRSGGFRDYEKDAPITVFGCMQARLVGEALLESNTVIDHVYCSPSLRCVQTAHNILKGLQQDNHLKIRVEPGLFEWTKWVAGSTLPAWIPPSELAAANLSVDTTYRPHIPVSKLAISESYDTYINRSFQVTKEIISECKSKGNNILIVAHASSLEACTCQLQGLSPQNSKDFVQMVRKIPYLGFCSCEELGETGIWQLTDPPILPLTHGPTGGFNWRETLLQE

Sts-2PGM(S552A/S582Y) = target: T3, Sts-2PGM(S552A/S582Y) (Mus musculus, UniProt Q3V3E1, S552A/S582Y); experiment: pNPP hydrolysis by Sts-2PGM; assay type: biochemical; details: substrate pNPP
T3 sequence (Q3V3E1 354-624 S552A/S582Y): T1 sequence (Q3V3E1 354-624) with S199A, S229Y

Sts-2PGM(A446S/S552A) = target: T4, Sts-2PGM(A446S/S552A) (Mus musculus, UniProt Q3V3E1, A446S/S552A); experiment: pNPP hydrolysis by Sts-2PGM; assay type: biochemical; details: substrate pNPP, pH 7.5, relative to Sts-2PGM
T4 sequence (Q3V3E1 354-624 A446S/S552A): T1 sequence (Q3V3E1 354-624) with A93S, S199A

Sts-2PGM [2] = target: T1, Sts-2PGM; experiment: pNPP hydrolysis by wild-type Sts-2PGM; assay type: biochemical; details: substrate pNPP, Sts-2PGM wild-type

Q: `[O]=[W](=[O])([OH])[OH]` [tungstate, sodium tungstate] was tested. Which IC50 (Sts-2PGM [1]) did it give?
A: 0.82 ± 0.1 mM

Q: What about the Ki (Sts-2PGM [1]) of the same compound?
A: 0.54 ± 0.07 mM

Q: Which relative activity (Sts-2PGM(E481V); pH 5.0, relative to Sts-2PGM) does the source give for `O=[N+]([O-])c1ccc(OP(=O)(O)O)cc1` [pNPP, p-nitrophenyl phosphate] here?
A: 207%

Q: And the relative activity (Sts-2PGM(E481V); pH 7.5, relative to Sts-2PGM)?
A: 10%

Q: What about the kcat (Sts-1PGM; pH 5.0, 37 °C) of the same compound?
A: 63.4 s⁻¹

Q: What about the relative activity (Sts-1PGM; pH 5.0, relative to Sts-2PGM) of the same compound?
A: 210000%

Q: What about the kcat (Sts-1PGM; pH 7.5, 37 °C) of the same compound?
A: 70 s⁻¹

Q: And the relative activity (Sts-1PGM; pH 7.5, relative to Sts-2PGM)?
A: 9400%

Q: And the Km (Sts-2PGM(S552A/S582Y); pH 5.0, 37 °C)?
A: 600 µM

Q: What about the kcat (Sts-2PGM(S552A/S582Y); pH 5.0, 37 °C) of the same compound?
A: 2.9 s⁻¹

Q: What about the relative activity (Sts-2PGM(S552A/S582Y); pH 5.0, relative to Sts-2PGM) of the same compound?
A: 312%

Q: And the relative activity (Sts-2PGM(A446S/S552A))?
A: 28%

Q: And the kcat (Sts-2PGM [2]; pH 5.0, 37 °C)?
A: 0.3 s⁻¹

Q: What about the relative activity (Sts-2PGM [2]; pH 5.0, relative to Sts-2PGM) of the same compound?
A: 13.0%

Q: And the relative activity (Sts-2PGM [2]; pH 7.5 (reference))?
A: 1%

Q: Which IC50 (Sts-2PGM [1]) does the source give for `O=P(O)(O)O` [phosphate] here?
A: 52 ± 6.2 mM

Q: And the Ki (Sts-2PGM [1])?
A: 35.1 ± 4.1 mM

Q: With `[O]=[V]([OH])([OH])[OH]` [vanadate, sodium vanadate] as the compound, how does the IC50 (Sts-2PGM [1]) read?
A: 5.3 ± 3.3 mM

Q: And the Ki (Sts-2PGM [1])?
A: 3.55 ± 2.3 mM
